The values below come from ChEMBL document CHEMBL1201862, “PubChem BioAssay data set” (2004).

For orientation: IC50 means the concentration at which inhibition is half-maximal. As a reminder, the AC50 is the concentration giving half of the maximal activity seen. For orientation: EC50 means the concentration needed to bring the measured effect to its halfway point. Usually CC50 stands for the concentration at which the toxic effect on the cells reaches its halfway point.

Assay [1] addresses T1, Sentrin-specific protease 8 (Homo sapiens, UniProt Q96LD8).
T1 sequence (Q96LD8 whole entry): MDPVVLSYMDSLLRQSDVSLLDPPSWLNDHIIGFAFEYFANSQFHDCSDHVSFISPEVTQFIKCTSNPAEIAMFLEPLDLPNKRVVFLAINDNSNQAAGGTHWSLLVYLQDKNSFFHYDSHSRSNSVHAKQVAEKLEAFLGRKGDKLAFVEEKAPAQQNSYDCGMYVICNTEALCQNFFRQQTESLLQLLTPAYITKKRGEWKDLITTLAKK
The experiment in a line: inhibition of human SENP8 cleavage activity – biochemical, luminescence, SAR follow-up (AID 504501). Format: functional.

The target of another assay is T2, Caspase-3 (Homo sapiens, UniProt P42574).
T2 sequence (P42574 whole entry): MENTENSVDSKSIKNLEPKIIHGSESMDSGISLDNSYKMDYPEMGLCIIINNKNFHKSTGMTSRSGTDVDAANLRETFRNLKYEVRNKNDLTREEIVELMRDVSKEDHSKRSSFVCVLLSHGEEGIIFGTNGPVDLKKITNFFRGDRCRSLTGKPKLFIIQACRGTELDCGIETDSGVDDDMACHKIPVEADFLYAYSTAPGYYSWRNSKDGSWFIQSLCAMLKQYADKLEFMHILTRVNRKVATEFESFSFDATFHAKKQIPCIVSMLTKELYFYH
The experiment in a line: SAR Analysis of small molecule inhibitors of Sentrin-specific proteases (SENPs) using a Caspase-3 Selectivity assay. [Related pubchem assays (depositor defined):AID2540, AID2599, AID434973, AID489001]. The assay is classed as functional.

Assay [2] deals with T3, Sentrin-specific protease 6 (Homo sapiens, UniProt Q9GZR1).
T3 sequence (Q9GZR1 whole entry): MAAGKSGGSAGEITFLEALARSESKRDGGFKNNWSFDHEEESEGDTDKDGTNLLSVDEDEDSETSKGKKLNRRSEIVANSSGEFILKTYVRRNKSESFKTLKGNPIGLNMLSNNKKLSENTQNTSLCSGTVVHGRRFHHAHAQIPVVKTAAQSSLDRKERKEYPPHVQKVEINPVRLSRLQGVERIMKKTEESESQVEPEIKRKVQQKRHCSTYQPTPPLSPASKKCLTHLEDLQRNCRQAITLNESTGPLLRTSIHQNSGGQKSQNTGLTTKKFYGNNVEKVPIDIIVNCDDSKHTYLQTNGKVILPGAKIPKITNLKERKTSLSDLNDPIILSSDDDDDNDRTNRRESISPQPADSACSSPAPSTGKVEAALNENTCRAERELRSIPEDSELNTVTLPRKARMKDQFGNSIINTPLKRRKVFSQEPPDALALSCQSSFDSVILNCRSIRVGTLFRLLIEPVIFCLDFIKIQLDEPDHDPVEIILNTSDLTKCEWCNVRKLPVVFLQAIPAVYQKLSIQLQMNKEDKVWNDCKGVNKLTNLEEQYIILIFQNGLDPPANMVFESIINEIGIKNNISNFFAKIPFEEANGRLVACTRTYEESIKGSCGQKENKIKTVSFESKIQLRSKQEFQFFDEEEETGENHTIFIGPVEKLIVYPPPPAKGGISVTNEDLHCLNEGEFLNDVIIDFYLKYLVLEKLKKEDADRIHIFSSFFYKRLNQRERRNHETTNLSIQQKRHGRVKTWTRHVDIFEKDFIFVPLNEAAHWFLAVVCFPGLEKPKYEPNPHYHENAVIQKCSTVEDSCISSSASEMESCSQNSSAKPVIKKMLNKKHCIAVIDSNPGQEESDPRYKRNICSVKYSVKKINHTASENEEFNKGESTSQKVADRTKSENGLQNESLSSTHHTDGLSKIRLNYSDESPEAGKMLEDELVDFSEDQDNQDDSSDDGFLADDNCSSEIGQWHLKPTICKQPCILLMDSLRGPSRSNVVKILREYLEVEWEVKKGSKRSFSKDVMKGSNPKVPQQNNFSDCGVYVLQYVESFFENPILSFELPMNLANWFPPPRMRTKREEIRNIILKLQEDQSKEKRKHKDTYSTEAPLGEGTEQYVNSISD
Briefly: SAR Analysis of small molecule inhibitors of Sentrin-specific protease 6 (SENP6) using a Luminescent assay. [Related pubchem assays (depositor defined):AID2582, AID2599]. Format: functional.

In assay [3] the target is T4, Sentrin-specific protease 7 (Homo sapiens, UniProt Q9BQF6).
T4 sequence (Q9BQF6 whole entry): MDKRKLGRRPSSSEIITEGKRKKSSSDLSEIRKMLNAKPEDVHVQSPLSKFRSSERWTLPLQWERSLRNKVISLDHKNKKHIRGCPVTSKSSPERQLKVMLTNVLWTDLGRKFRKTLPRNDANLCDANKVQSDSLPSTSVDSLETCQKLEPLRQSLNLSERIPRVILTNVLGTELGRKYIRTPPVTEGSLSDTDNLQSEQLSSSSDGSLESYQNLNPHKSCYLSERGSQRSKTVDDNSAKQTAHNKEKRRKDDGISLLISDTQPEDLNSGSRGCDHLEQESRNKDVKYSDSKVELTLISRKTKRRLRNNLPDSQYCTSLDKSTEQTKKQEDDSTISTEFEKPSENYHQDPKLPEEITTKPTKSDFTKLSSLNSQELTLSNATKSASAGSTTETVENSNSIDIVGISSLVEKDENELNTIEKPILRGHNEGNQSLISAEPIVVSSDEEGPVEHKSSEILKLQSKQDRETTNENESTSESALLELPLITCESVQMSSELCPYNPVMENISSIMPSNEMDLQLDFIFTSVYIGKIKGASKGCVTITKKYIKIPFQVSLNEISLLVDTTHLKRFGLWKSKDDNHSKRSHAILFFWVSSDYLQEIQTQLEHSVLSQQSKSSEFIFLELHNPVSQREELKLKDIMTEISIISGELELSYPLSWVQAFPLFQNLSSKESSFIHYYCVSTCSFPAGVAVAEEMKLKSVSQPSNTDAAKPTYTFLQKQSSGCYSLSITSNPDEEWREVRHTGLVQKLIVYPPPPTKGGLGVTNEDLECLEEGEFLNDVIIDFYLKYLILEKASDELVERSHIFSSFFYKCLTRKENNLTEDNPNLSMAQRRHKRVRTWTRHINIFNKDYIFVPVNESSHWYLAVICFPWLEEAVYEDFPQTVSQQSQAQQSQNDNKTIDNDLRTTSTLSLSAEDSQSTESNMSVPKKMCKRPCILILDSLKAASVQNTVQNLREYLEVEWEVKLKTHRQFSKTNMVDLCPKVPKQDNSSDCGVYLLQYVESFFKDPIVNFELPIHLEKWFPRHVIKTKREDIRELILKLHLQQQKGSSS
The experiment in a line: inhibition of human SENP7 cleavage activity – biochemical, luminescence, SAR follow-up (AID 504497). Format: functional.

Assay [4] addresses T5, Fatty acid synthase (Homo sapiens, UniProt P49327). The experiment in a line: inhibition of human FAS-TE enzyme activity – biochemical, endpoint fluorescence intensity, uHTS hits, dose response (AID 624327).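 Further: fluorescence from hydrolysis of an O-methyl fluorescein acyl ester substrate by the enzyme.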 Format: functional.
For another assay, the target named is Phospholipase A2 (Homo sapiens, UniProt P04054). Format: functional.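 Further: confirmatory dose-response counterscreen on phospholipase A2, testing hits that came from an ultra-high-throughput screen for ATG4B inhibitors.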
For assay [5], the target named is T5, Fatty acid synthase. The experiment in a line: inhibition of human FAS-TE enzyme activity – biochemical, kinetic fluorescence intensity, dose response (AID 624326).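 Further: rate of fluorescence rise from hydrolysis of a fluorogenic O-methyl fluorescein ester substrate.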 The assay is classed as functional.
In the next assay the target is T6, Cysteine protease ATG4B (Homo sapiens, UniProt Q9Y4P1).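 Further: Fluorescence-based dose-response confirmation assay measuring inhibition of ATG4B activity.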
T6 sequence (Q9Y4P1 whole entry): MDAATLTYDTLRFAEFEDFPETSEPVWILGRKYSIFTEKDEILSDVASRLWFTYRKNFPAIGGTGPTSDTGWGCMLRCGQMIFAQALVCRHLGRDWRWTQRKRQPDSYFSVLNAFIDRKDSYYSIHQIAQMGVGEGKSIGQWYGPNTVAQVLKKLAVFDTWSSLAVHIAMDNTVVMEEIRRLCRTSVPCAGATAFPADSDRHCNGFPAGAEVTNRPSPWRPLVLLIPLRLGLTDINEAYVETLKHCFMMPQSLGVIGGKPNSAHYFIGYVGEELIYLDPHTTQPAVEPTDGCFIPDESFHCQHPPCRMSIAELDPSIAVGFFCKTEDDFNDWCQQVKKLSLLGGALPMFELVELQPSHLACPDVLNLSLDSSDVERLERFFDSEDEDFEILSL
Format: functional.

For assay [6], the system named is Candida albicans. Briefly: C. albicans growth inhibition with fluconazole – CaCi-2 strain, Alamar Blue, dry powder, set 4, dose response (AID 488943). Format: functional, organism-based. For orientation: The colour change of resazurin is a common sign of viable cells or microbes.
Assay [7] deals with Candida albicans. Briefly: fluconazole-resistant Candida strain growth inhibitors – CaCi-8 strain, dry powder, set 4, dose response (AID 488950). The assay is classed as functional, organism-based.
Another assay deals with Streptococcus. The experiment in a line: GAS UMAA2166 growth inhibition – luminescence, BacTiterGlo, counter-screen for streptokinase expression inhibitor project, dose response (AID 1915).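 Further: potency for reduction of bacterial viability or growth.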 Format: functional, organism-based. A general note: The purpose of a counterscreen is to sort out artefacts and off-target activity.
For a further assay, the target named is T7, Streptokinase A (Streptococcus pyogenes serotype M1, UniProt P10520).
T7 sequence (P10520 whole entry): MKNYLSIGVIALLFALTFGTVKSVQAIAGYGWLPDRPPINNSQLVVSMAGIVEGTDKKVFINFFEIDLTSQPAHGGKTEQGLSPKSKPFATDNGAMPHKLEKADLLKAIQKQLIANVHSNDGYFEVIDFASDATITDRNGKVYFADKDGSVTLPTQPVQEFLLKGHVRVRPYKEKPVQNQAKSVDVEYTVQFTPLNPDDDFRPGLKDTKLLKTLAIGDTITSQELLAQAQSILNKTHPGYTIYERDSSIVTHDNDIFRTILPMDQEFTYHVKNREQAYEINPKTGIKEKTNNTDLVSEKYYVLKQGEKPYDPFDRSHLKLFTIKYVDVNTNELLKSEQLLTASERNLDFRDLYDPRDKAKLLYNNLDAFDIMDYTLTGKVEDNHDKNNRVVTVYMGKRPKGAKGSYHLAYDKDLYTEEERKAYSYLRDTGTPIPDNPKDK
Briefly: viability-normalized secreted streptokinase activity reduction – plasminogen activation absorbance, OD405, dose response (AID 1914).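 Further: secreted streptokinase activity via plasminogen activation per viability signal from cell pellet.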 Format: functional, Streptococcus pyogenes M1 GAS.

The test system of a further assay is Vero. The experiment in a line: cells. Format: functional. The note with it: Chlorocebus sabaeus.
The target of assay [8] is T8, Calpain-2 catalytic subunit (Sus scrofa, UniProt P43367).
T8 sequence (P43367 whole entry): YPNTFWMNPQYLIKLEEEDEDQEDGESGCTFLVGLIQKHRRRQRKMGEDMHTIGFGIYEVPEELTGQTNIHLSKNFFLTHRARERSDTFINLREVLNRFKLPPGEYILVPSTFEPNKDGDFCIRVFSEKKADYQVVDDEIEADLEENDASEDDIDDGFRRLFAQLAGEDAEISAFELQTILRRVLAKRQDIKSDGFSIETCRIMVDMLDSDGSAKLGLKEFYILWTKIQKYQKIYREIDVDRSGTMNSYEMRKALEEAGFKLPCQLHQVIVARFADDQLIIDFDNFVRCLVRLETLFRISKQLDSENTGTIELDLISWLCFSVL
The experiment in a line: m-calpain protease blockers, concentration series – biochemical, fluorogenic peptide substrate, dose response (AID 1420). Format: functional.

The target in assay [9] is Heat shock protein HSP 90-alpha (Homo sapiens, UniProt P07900). Format: functional, organism-based.
Assay [10] concerns Streptococcus sp. 'group A'. Briefly: Streptococcus pyogenes SK(-)GAS viability under kanamycin – luminescence, BacTiterGlo, confirmation, counter-screen for streptokinase expression inhibitor project, dose response (AID 1900). The assay is classed as functional, organism-based.

Active and inactive are the calls of the source.

Phospholipase A2, sequence (P04054 whole entry): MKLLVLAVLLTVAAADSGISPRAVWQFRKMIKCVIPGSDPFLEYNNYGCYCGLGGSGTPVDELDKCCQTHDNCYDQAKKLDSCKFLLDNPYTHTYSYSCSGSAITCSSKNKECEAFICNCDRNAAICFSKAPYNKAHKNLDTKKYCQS
T5 sequence (P49327 whole entry): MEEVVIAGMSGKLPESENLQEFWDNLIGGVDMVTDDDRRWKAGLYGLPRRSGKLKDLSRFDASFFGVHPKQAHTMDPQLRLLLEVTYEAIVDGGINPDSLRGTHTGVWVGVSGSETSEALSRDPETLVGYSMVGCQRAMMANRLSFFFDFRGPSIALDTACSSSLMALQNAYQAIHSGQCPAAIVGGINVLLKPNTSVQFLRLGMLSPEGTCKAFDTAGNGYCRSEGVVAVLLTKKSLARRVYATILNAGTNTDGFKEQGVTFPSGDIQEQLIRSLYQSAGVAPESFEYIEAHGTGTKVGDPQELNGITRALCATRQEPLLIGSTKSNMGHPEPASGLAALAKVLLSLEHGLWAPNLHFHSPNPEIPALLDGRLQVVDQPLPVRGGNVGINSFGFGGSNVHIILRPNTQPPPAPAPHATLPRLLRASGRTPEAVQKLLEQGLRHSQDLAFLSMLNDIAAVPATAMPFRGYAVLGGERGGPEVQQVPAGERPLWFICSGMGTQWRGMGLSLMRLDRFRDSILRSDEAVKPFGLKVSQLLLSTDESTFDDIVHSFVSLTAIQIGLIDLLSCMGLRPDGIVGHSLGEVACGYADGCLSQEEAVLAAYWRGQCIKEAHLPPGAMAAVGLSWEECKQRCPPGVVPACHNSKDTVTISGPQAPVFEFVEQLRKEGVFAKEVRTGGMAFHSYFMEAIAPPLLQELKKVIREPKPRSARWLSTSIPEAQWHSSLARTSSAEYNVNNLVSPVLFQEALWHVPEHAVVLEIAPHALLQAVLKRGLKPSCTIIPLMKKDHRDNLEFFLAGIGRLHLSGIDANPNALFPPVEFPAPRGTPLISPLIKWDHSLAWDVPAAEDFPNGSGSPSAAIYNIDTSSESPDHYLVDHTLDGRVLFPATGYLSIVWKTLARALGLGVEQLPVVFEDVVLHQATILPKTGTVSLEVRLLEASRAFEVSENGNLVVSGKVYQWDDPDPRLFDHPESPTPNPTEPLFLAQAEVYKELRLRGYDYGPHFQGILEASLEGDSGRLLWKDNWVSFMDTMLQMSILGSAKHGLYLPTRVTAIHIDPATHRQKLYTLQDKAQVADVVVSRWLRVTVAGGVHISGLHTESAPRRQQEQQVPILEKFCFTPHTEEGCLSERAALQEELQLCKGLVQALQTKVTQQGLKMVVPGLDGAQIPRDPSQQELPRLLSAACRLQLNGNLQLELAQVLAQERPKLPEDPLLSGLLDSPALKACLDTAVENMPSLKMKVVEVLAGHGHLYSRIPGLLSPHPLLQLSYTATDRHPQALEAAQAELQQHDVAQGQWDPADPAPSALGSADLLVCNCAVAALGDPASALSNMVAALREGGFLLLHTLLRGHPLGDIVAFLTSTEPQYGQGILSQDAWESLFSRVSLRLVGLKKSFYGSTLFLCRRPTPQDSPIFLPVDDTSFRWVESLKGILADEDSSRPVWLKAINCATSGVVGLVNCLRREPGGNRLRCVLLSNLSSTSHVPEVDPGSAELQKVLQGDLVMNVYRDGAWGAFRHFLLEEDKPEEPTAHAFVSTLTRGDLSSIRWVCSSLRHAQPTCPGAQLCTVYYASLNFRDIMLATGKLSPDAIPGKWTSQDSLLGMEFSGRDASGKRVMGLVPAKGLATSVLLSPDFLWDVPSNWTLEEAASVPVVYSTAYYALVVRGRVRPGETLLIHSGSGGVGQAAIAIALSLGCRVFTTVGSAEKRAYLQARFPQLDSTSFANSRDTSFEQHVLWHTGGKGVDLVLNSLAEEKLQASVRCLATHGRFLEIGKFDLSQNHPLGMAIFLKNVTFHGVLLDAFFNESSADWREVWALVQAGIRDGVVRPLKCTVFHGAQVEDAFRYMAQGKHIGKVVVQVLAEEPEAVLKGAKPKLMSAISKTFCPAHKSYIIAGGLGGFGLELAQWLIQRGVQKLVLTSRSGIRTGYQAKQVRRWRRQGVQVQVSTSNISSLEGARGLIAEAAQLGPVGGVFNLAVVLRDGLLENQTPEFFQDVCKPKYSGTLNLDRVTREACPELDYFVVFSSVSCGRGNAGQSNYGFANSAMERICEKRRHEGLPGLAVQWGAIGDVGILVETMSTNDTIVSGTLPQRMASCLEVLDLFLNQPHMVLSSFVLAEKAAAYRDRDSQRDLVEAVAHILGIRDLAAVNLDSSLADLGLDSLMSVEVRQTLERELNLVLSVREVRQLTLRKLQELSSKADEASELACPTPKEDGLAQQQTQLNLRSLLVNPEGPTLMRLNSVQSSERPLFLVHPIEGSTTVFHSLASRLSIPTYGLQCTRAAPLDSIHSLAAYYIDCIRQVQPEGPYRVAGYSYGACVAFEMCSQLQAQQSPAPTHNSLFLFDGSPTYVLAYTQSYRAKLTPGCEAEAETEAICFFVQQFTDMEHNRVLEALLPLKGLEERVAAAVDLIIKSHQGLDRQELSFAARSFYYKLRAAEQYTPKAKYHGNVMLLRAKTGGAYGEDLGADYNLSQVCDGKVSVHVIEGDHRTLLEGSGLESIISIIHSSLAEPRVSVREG

As to `O=C(Nc1ccccc1Cl)c1ccc(OCc2ccccc2)cc1`, the IC50 (in assay [1]; at Caspase-3; in assay [2]; in assay [3]) was > 99 µM (inactive) in each case.
In the case of `COc1cc(C(=O)Nc2ccccc2Cl)ccc1OCc1ccc(Cl)cc1`, the IC50 (in assay [1]; at Caspase-3; in assay [2]; in [3]) was > 99 µM (inactive) each time.
Consider `O=C(O)COc1ccccc1C=NNc1ccc([N+](=O)[O-])cc1S(=O)(=O)Nc1ccc(Cl)cc1`, for which the IC50 at Fatty acid synthase [4] is 10.8 µM (active); at Phospholipase A2 it was 12.2 µM (active); on Fatty acid synthase [5], 12.5 µM (active); at Cysteine protease ATG4B, 10.6 µM (active).
With `COc1ccc(OC)c2c(C)cc(N3CCN(C(=O)c4ccc(Cl)cc4)CC3)nc12`, the AC50 is 9.36 µM (active) in the assay with Candida albicans [6] and 8.32 µM (active) with Candida albicans [7].
In the case of `O=C(O/N=C1/CCSc2ccccc21)c1ccccc1`, the IC50 was 13.2 µM (active) on Phospholipase A2 and 16 µM (active) on Cysteine protease ATG4B.
For the compound `COC(=O)c1ccc(NC(=O)C(=O)c2c[nH]c3ccccc23)cc1`, the IC50 (in [1]; on Caspase-3; in [2]; in [3]) was > 99 µM (inactive) throughout.
Consider `CCCc1ccc(Oc2c[nH]nc2-c2ccc(O)c(C)c2O)cc1`, for which the half-maximal effective concentration (EC50) was 8.83 µM (active) with Streptococcus and > 150 µM (not active) on Streptokinase A. For the same compound, the half-maximal cytotoxic concentration (CC50) in the assay with Vero was > 25 µM (active). For the same compound, the IC50 in assay [8] is 38.2 µM (not active). Further, the AC50 in assay [9] was 3.08 µM (active).
As to `O=C1NC(=O)/C(=C\c2ccccc2OCc2ccccc2)S1`, the EC50 in the assay on Streptococcus is 88.8 µM (active); in [10], 16.4 µM (active); at Streptokinase A it was 37.6 µM (active). Moreover, the values for the IC50 at Phospholipase A2 and on Cysteine protease ATG4B were 8.29 µM (active) and 10.7 µM (active), respectively.
